Data published in patent US7572826B2, “Thiophene-carboxamide derivatives and their use as inhibitors of the enzyme IKK-2” (AstraZeneca AB, priority 2003, dated 2009).

Experiments:
[1] = system: human peripheral blood mononuclear cells (PBMCs); test: Inhibition of LPS-induced TNFα production by PBMCs; format: cell-based; settings: PBMC, inhibition of LPS-stimulated TNFα production
Description: The effect of test compounds on nuclear factor kappa B (NFκB) activation in cells was assessed by measuring inhibition of tumour necrosis factor alpha (TNFα) production by human peripheral blood mononuclear cells (PBMCs) stimulated by bacterial lipopolysaccharide (LPS).
Human blood (250 ml), anticoagulated with heparin, was collected from healthy volunteers. Aliquots of blood (25 ml) were layered on 20 ml Lymphoprep (Nycomed) in 50 ml polypropylene centrifuge tubes. The tubes were centrifuged (Sorval RT600B) at 2,500 rpm for 30 minutes. The cloudy layer containing PBMCs was collected with a fine tipped Pasteur pipette, transferred into 8 clean polypropylene centrifuge tubes (approximately 10 ml per tube) and diluted to 50 ml with phosphate-buffered saline (PBS). These tubes were centrifuged at 2,000 rpm for 8 minutes. PBS (10 ml) was added to each cell pellet and the cells were gently re-suspended. The cells were pooled in 4 centrifuge tubes, PBS was added to each tube to make the volume up to 50 ml and the tubes were centrifuged at 1,400 rpm for 8 minutes. The cell pellets were again re-suspended in 10 ml PBS, pooled in 2 centrige tubes, the volume made up to 50 ml with PBS and the tubes centrifuged at 900 rpm for 10 minutes.
The final cell pellets were gently re-suspended in 10 ml tissue culture medium (RPMI containing 1% heat-inactivated human serum, L-glutamine and penicillin and streptomycin), combined into 1 tube and the volume made up to 30 ml with RPMI medium. The cells were counted and the cell suspension was diluted to 2.6×10^6 cells/ml.
Test compounds were dissolved in DMSO to 10 mM and diluted 1 in 250 (40 μM) with RPMI medium. The compounds were then serially diluted 1 in 3 with 0.4% DMSO in RPMI medium. Aliquots of test compound dilutions (50 μl) were transferred to the wells of a 96-well plate. Control wells contained 0.4% DMSO in RPMI instead of compound.
Aliquots of the cell suspension (100 μl) were added to each well and the plates incubated at 37° C. for 30 minutes. 50 μl of 40 μg/ml LPS (Sigma, LA130) was added to wells to stimulate TNFα production by the cells and the plates were incubated overnight at 37° C. RPMI medium (50 μl) was added to negative control wells instead of LPS. The final incubation volume was 200 μl.
Plates were centrifuged for 4 minutes at 1,200 rpm and supernatants were removed for measurement of TNFα concentration. Viability of the remaining cell pellet was measured using WST-1 reagent (Boehringer Mannheim, 1044807). […] The absorbance at 450 nm was then measured using a 96-well plate spectrophotometer.
TNFα in the supernatants (freshly harvested or stored frozen at −20° C.) were measured using an enzyme-linked immunosorbant assay (ELISA). […]

[2] = target: T1, IKK-2 (Homo sapiens, UniProt O14920); test: IKK-2 filter kinase assay; format: biochemical; settings: 1 μM ATP, 1-53 GST-IκB substrate, read-out: Inhibition of IKK-2 IC50
T1 sequence (O14920 1-756): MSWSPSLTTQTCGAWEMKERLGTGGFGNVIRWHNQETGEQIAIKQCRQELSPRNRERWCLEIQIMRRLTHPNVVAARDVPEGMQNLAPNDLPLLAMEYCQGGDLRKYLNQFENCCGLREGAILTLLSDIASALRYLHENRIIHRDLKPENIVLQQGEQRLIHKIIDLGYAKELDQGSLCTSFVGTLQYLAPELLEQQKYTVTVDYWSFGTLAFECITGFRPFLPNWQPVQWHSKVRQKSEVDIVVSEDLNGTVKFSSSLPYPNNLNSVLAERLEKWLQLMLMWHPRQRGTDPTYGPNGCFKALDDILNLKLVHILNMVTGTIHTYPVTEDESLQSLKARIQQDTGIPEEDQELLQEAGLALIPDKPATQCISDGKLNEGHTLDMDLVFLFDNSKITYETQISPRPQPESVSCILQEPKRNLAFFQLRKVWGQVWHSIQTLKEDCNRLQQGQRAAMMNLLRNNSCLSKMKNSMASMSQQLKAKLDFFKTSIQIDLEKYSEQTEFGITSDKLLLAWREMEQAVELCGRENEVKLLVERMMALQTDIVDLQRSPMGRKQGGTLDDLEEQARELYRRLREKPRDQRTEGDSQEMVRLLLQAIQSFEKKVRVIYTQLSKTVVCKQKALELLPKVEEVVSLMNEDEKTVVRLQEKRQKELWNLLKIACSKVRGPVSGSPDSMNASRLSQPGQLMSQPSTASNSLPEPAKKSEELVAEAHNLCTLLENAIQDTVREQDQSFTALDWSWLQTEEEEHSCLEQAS
Description: The test compounds were dissolved to 10 mM in dimethylsulphoxide (DMSO). The compounds were then diluted 1 in 40 in kinase buffer (50 mM Tris, pH 7.4 containing 0.1 mM EGTA, 0.1 mM sodium orthovanadate and 0.1% β-mercaptoethanol). 1 in 3 serial dilutions were made from this solution with 2.5% DMSO in kinase buffer. 20 μl of compound dilution was added to wells of a 96 well plate in duplicate.
10 μl of a mixture of magnesium acetate, unlabelled ATP, and ^33P-labelled ATP was added to each well made such that the final concentration was 10 mM magnesium acetate, 1 μM ATP and 0.1 μCi ^33P ATP. […] The final reaction volume was 50 μl.
The kinase reactions were incubated at 21° C. for 80 minutes and the reaction stopped by precipitating the protein by the addition of an equal volume (50 μl) of 20% trichloroacetic acid (TCA). The precipitate was allowed to form for 10 minutes and then filtered onto a GF/C unifilter 96 well plate. Each filter was washed twice with approximately 1 ml 2% TCA. The filter plate was dried at 30-40° C. for 60 minutes, 20 μl scintillant was added to each well and the plate sealed and radioactivity counted on a Packard Topcount microplate scintillation counter.

| IC50 [2] | SMILES | IC50 [1] |
| --- | --- | --- |
| 3.6 nM | NC(=O)Nc1sc(-c2ccc(CNCC(F)(F)F)cc2)cc1C(N)=O [Example 1] | 420 nM |
| 13 nM | CN(C)Cc1ccc(-c2cc(C(N)=O)c(NC(N)=O)s2)cc1 [Example 5, 2-[(Aminocarbonyl)amino]-5-{4-[dimethylaminomethyl]phenyl}thiophene-3-carboxamide] | 120 nM |
| 66 nM | COCCN(C)Cc1ccc(-c2cc(C(N)=O)c(NC(N)=O)s2)cc1 [Example 56] | 450 nM |
| 0.56 nM | NC(=O)Nc1sc(-c2ccc(CN(CCO)Cc3ccccc3)cc2)cc1C(N)=O [Example 61, 2-[(Aminocarbonyl)amino]-5-[4-{([N-benzyl-N-(2-hydroxyethyl)]amino)methyl}phenyl]thiophene-3-carboxamide] | 340 nM |
